Reference: patent US8703825B2, “Compounds, use thereof as medicaments, and method of preparation thereof” (Universite de Lorraine, priority 2008, dated 2014)
≈ marks a conversion by molar mass, not a printed value. Entries after “also recorded” stand apart in the source; their conditions may differ. Where two headings read alike, the source gives them in different places.

Assays:
[1] = tested on: Staphylococcus aureus ATCC 25923; test: MIC by microdilution in liquid medium (CLSI / CA-SFM); format: cell-based; settings: Staphylococcus aureus
Text: (§1) According to the joint recommendations: • of the “Comite de l′Antibiogramme de la Société Française de Microbiologie” (Antibiogram Committee of the French Society of Microbiology) (CA-SFM) [CA-SFM. Communique 2007 (Edition of January 2007). http://www.sfm.asso.fr] and, • of the “Clinical and Laboratory Standards Institute” (CLSI, formerly “National Committee for Clinical Laboratory Standards” or NCCLS) [NCCLS. 2003. Methods for dilution antimicrobial susceptibility tests for bacteria that grow aerobically; approved standard M7-A6, 6th ed. National Committee for Clinical Laboratory Standards, Wayne, Pa., USA.], five reference bacterial strains were used for the study: Escherichia coli ATCC 25922, Pseudomonas aeruginosa ATCC 27853, Staphylococcus aureus ATCC 25923 & ATCC 29213 and Enterococcus faecalis ATCC 29212.
(§2) The bacteria are cultivated either on Mueller-Hinton agar (Difco, 225250), or in Mueller-Hinton broth (Difco, 275730), at 35° C. [Grare M, Mourer M, Fontanay S, Regnouf-de-Vains J B, Finance C, Duval R E. In vitro activity of para-guanidinoethylcalix[4]arene against susceptible and antibiotic-resistant Gram-negative and Gram-positive bacteria. J. Antimicrob Chemother. 2007; 60: 575-81].
(§3) The various molecules tested were prepared in the form of aqueous solution at 10^−2 mol/L. The solutions used for the biological tests are freshly prepared, and stored for a week at most, at 4° C. The solutions are filtered through a filter with pores of 0.22 μm (Millex®GP; 0.22 μm; Millipore; France) before each test.
(§4) Procedure for determining the Minimum Inhibitory Concentration (MIC)
(§5) The minimum inhibitory concentrations (MIC) were determined by the standardized method of microdilution in liquid medium (96-well microplate, U-shaped bottom, Greiner), in Mueller-Hinton broth, with a final inoculum of 10^5-10^6 CFU/mL, depending on the bacterial species, in accordance with the recommendations of the CLSI.
(§6) For the determination of MIC, bacterial suspensions are prepared from an isolated colony, taken from a Mueller-Hinton agar, taken up in 5 mL of Mueller-Hinton broth. After 24 h of growth, the bacterial suspensions are diluted in sterile distilled water in order to obtain an inoculum of 10^5-10^6 CFU/mL. The purity of the bacterial suspensions is tested by isolation on agar and Gram staining.
(§7) The results are the mean value of 4 independent experiments.

[2] = tested on: Pseudomonas aeruginosa ATCC 27853; test: as above; format: cell-based
Text: as §1, §2, §3, §4, §5, §6, §7

[3] = tested on: Gram-positive and Gram-negative bacteria (reference strains and clinical isolates); test: Antibacterial activity overall (MIC determination); format: cell-based; settings: summary of MIC results
Text: as §1
The study also included 5 clinical isolates, obtained from rectal samples and/or from haemoculture: • […] E. coli (EcR1), • methicillin-resistant S. aureus (mecA gene) (SaR1), • vancomycin-resistant E. faecium (vanB gene) (EfR1), • E. faecalis resistant to teicoplanin and to vancomycin (vanA gene) (EfR2), and • P. aeruginosa overexpressing an efflux pump (PaRl).
as §4, §5, §6, §7

[4] = tested on: HaCaT and/or MRC5 eukaryotic cells; format: cell-based, human
Text: The eukaryotic cells used in our study are HaCaT cells (human keratinocytes), which were kindly supplied by the Pierre Fabre Institute (Toulouse, France); and MRC-5 cells (human embryonic fibroblasts), which were obtained from the company BioMérieux (Lyons, France). These cells are cultivated in DMEM (“Dulbecco's modified Eagle's medium”, Invitrogen 61965) for the HaCaT cells, and MEM (“modified Eagle's medium”, Invitrogen 41090); 10% of fetal calf serum (FCS, Invitrogen, 10270, Batch 40Q5150K) in a humid chamber at 37° C., under 5% CO2. The HaCaT and MRC-5 cells were seeded at 10^4 cells/well in 96-well plates (Sarstedt 831835). […]
It is based on the reduction of yellow tetrazolium salts to purple crystals of formazan, mainly by mitochondrial dehydrogenases. The quantity of formazan formed is proportional to the number of live cells. […] The absorbance is measured at 540 nm with a reference wavelength at 690 nm, using an ELISA plate reader (Multiskan E X, Thermo Electron Corporation, France). […]
The cytotoxicity test is based on incorporation of a vital dye, Neutral Red, in the lysosomes of the viable cells, after exposure of the cells to different concentrations of the test molecules. The quantity of dye, after extraction from the lysosomes, is quantified by means of a spectrophotometer and compared with that obtained in the case of “control” cells, not exposed to the test molecules. […]

[5] = ATCC25923, S. aureus ATCC 25923, reference strain, read-out: MIC
[6] = ATCC27853, P. aeruginosa ATCC 27853, reference strain, read-out: MIC

| Structure (SMILES) | MIC [1, 5] [µg/mL] | MIC [2, 6] [µg/mL] | antibacterial activity (in words) [3] | MIC ([1]; ATCC25923) [µg/mL] | MIC ([2]; ATCC27853) [µg/mL] | effect on viability and cytotoxicity (in words) [4] |
| --- | --- | --- | --- | --- | --- | --- |
| [H]/N=C(\N/C(=N/[H])NCCCCCCNC(=N)NC(=N)Nc1ccc(Cl)cc1)Nc1ccc(Cl)cc1 [CHX, chlorhexidine] | 0.5 (≈ 0.989 µM) | 8 (≈ 15.8 µM) | broad-spectrum antibacterial activity | – | – | – |
| N=C(N)c1ccc(OCCCCCCOc2ccc(C(=N)N)cc2)cc1 [HX, hexamidine] | – | – | – | 4 (≈ 11.3 µM) | 32 (≈ 90.3 µM) | – |
| N=C(N)NCCc1ccc(OCCCCCCOc2ccc(CCNC(=N)N)cc2)cc1 [compound 6, 1,6-bis(4-(2-guanidinoethyl)phenoxy)hexane] | 0.5 (≈ 1.13 µM) | 16 (≈ 36.3 µM) | maintains comparable activity on the clinical isolates; also recorded: better overall than hexamidine and is comparable to that of chlorhexidine | – | – | slightly less pronounced effect on viability and cytotoxicity |
